Where a SMILES comes first, the peptide text is derived from it. Bridges are numbered along the chain shown (N, C = ends). Roman numbers before positions name the chains, in order. [ ]: non-standard residue; d: D form. Tle = CC(C)(C)[C@H](N)C(=O)O; dDab = NCC[C@@H](N)C(=O)O; Nle = CCCC[C@H](N)C(=O)O; Orn = NCCC[C@H](N)C(=O)O; Dab = NCC[C@H](N)C(=O)O; dAze = O=C(O)[C@H]1CCN1; Dap = NC[C@H](N)C(=O)O
Assays:
Format in all cases: cell-based
[1] = tested on: human red blood cells (hRBC); assay: Hemolysis of human red blood cells; settings: red cells of human, 1 h
Outline: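 Fresh human red blood cells are washed in PBS, then shaken with peptide (100 μg/mL) at 37° C. for 1 h, final erythrocyte density about 0.9×10^9 cells/mL. After centrifugation, diluted supernatants are read at 540 nm against buffer (0%) and Triton X-100 (100%) lysis controls.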

[2] = tested on: Escherichia coli ATCC 25922; settings: ATCC 25922
Outline: (§1)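 MIC in μg/mL; CLSI microdilution; cation-adjusted Mueller-Hinton II with Polysorbate 80 (0.002%); 10^6 CFU/mL; 35° C, 18-20 h.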

[3] = tested on: Klebsiella pneumoniae SSI #3010; settings: SSI #3010
Outline: as §1

[4] = tested on: Acinetobacter baumannii DSM 30008; settings: DSM 30008
Outline: as §1

[5] = tested on: Klebsiella pneumoniae 968733; settings: 968733
[6] = tested on: Acinetobacter baumannii 872842; settings: 872842
[7] = tested on: Pseudomonas aeruginosa ATCC 27853; settings: ATCC 27853
Outline: as §1

[8] = tested on: Escherichia coli 926415; settings: 926415

Compound	Hemolysis at 100 μg/mL ([1]; 100 μg/mL) [%]	Escherichia coli ATCC 25922 MIC [2] [µg/mL]	Klebsiella pneumoniae SSI #3010 MIC [3] [µg/mL]	Acinetobacter baumannii DSM 30008 MIC [4] [µg/mL]	Klebsiella pneumoniae 968733 MIC [5] [µg/mL]	Acinetobacter baumannii 872842 MIC [6] [µg/mL]	Pseudomonas aeruginosa ATCC 27853 MIC [7] [µg/mL]	Escherichia coli 926415 MIC [8] [µg/mL]	Hemolysis at 100 μg/mL [1]; 100 [%]
CC(C)C[C@@H]1NC(=O)[C@H](CO)NC(=O)[C@H](C(C)C)NC(=O)[C@@H]2CCCN2C(=O)[C@H]2CCCN2C(=O)[C@H](CO)NC(=O)[C@H](C)NC(=O)[C@H](C(C)(C)C)NC(=O)[C@@H](NC(=O)[C@@H](N)Cc2c[nH]c3ccccc23)CSSC[C@@H](C(=O)N[C@@H](CCCN)C(=O)N[C@@H](CCN)C(=O)N[C@H]2CCNC(=O)[C@H]([C@@H](C)O)NC(=O)[C@H](CCN)NC(=O)[C@H](CCN)NC(=O)[C@H](CC(C)C)NC(=O)[C@@H](Cc3ccccc3)NC(=O)[C@H](CCN)NC2=O)NC1=O [Ex. 188] (H-WC[Tle]AS[dP]PVSLC[Orn][Dab][Dab][Dab][dF]L[Dab][Dab]T; disulfide 2-11; lactam 14-C)	<1	0.25	0.25	0.25	4	1	1	0.25	–
CC(C)C[C@@H]1NC(=O)[C@@H](CC(C)C)NC(=O)[C@H](CCN)NC(=O)[C@@H](NC(=O)[C@H](CCN)NC(=O)[C@H](CN)NC(=O)[C@@H]2CSSC[C@H](NC(=O)[C@@H](N)Cc3c[nH]c4ccccc34)C(=O)N[C@@H](C(C)(C)C)C(=O)N[C@@H](C)C(=O)N[C@@H]([C@@H](C)O)C(=O)N3CC[C@@H]3C(=O)N3CCC[C@H]3C(=O)N[C@@H](C(C)C)C(=O)N[C@@H](CO)C(=O)N[C@@H](Cc3ccc(O)cc3)C(=O)N2)CCNC(=O)[C@H]([C@@H](C)O)NC(=O)[C@H](CCN)NC(=O)[C@H](CCN)NC1=O [Ex. 189] (H-WC[Tle]AT[dAze]PVSYC[Dap][Dab][Dab][Dab][dL]L[Dab][Dab]T; disulfide 2-11; lactam 14-C)	1	0.25	0.5	0.5	1	0.125	2	0.5	–
CC(C)C[C@@H]1NC(=O)[C@@H](Cc2ccccc2)NC(=O)[C@H](CCN)NC(=O)[C@@H](NC(=O)[C@H](CCN)NC(=O)[C@H](CCCN)NC(=O)[C@@H]2CSSC[C@H](NC(=O)[C@@H](N)Cc3c[nH]c4ccccc34)C(=O)N[C@@H](C(C)(C)C)C(=O)N[C@H]3CC(=O)NCC[C@H](NC(=O)[C@H](C(C)C)NC(=O)[C@@H]4CCCN4C(=O)[C@H]4CCN4C(=O)[C@H]([C@@H](C)O)NC3=O)C(=O)N[C@@H](Cc3ccc(O)cc3)C(=O)N2)CCNC(=O)[C@H]([C@@H](C)O)NC(=O)[C@H](CCN)NC(=O)[C@H](CCN)NC1=O [Ex. 191] (H-WC[Tle]DT[dAze]PV[Dab]YC[Orn][Dab][Dab][Dab][dF]L[Dab][Dab]T; disulfide 2-11; lactam 4-9, 14-C)	6	0.5	0.25	0.5	0.5	0.25	1	0.125	–
CCCC[C@@H]1NC(=O)[C@@H]2CCCN2C(=O)[C@H]2CCCN2C(=O)[C@H](CO)NC(=O)[C@H](C)NC(=O)[C@H](C(C)(C)C)NC(=O)[C@H](CCN)NC(=O)[C@H](Cc2c[nH]c3ccccc23)NC(=O)[C@@H](N)CCC(=O)NCC[C@@H](C(N)=O)NC(=O)[C@H](CCC(=O)N[C@H](CCN)C(=O)N[C@H]2CCNC(=O)[C@H]([C@@H](C)O)NC(=O)[C@H](CCN)NC(=O)[C@H](CCN)NC(=O)[C@H](CC(C)C)NC(=O)[C@@H](Cc3ccccc3)NC(=O)[C@H](CCN)NC2=O)NC(=O)[C@H](CCN)NC(=O)[C@H](Cc2ccc(O)cc2)NC(=O)[C@H](CO)NC1=O [Ex. 193] (I: H-EW[Dab][Tle]AS[dP]P[Nle]SY[Dab]E[Dab]-NH2 / II: [dDab][Dab][Dab][dF]L[Dab][Dab]T; lactam I:1-I:14, II:2-II:C; amide I:13-II:N)	–	0.5	0.5	1	1	1	2	0.5	<1
CCCC[C@@H]1NC(=O)[C@@H]2CCCN2C(=O)[C@H]2CCCN2C(=O)[C@H](CO)NC(=O)[C@H](C)NC(=O)[C@H](C(C)(C)C)NC(=O)[C@H](CCN)NC(=O)[C@H](Cc2c[nH]c3ccccc23)NC(=O)[C@@H](NC(C)=O)CSSC[C@@H](C(N)=O)NC(=O)[C@H](CCC(=O)N[C@H](CCN)C(=O)N[C@H]2CCNC(=O)[C@H]([C@@H](C)O)NC(=O)[C@H](CCN)NC(=O)[C@H](CCN)NC(=O)[C@H](CC(C)C)NC(=O)[C@@H](Cc3ccccc3)NC(=O)[C@H](CCN)NC2=O)NC(=O)[C@H](CCN)NC(=O)[C@H](Cc2ccc(O)cc2)NC(=O)[C@H](CO)NC1=O [Ex. 194] (I: Ac-CW[Dab][Tle]AS[dP]P[Nle]SY[Dab]EC-NH2 / II: [dDab][Dab][Dab][dF]L[Dab][Dab]T; disulfide I:1-I:14; amide I:13-II:N; lactam II:2-II:C)	<1	0.25	0.5	0.5	2	2	2	1	–
CCCC[C@@H]1NC(=O)[C@@H]2CCCN2C(=O)[C@H]2CCCN2C(=O)[C@H](CO)NC(=O)[C@H](C)NC(=O)[C@H](C(C)(C)C)NC(=O)[C@H](CCN)NC(=O)[C@H](Cc2c[nH]c3ccccc23)NC(=O)[C@@H](NC(C)=O)CCNC(=O)CC[C@@H](C(=O)N[C@H](CCN)C(=O)N[C@H]2CCNC(=O)[C@H]([C@@H](C)O)NC(=O)[C@H](CCN)NC(=O)[C@H](CCN)NC(=O)[C@H](CC(C)C)NC(=O)[C@@H](CC(C)C)NC(=O)[C@H](CCN)NC2=O)NC(=O)[C@H](CCCN)NC(=O)[C@H](CCN)NC(=O)[C@H](Cc2ccc(O)cc2)NC(=O)[C@H](CO)NC1=O [Ex. 196] (Ac-[Dab]W[Dab][Tle]AS[dP]P[Nle]SY[Dab][Orn]E[dDab][Dab][Dab][dL]L[Dab][Dab]T; lactam 1-14, 16-C)	–	0.125	0.25	0.25	0.5	0.5	1	0.125	<1
CCCC[C@@H]1NC(=O)[C@@H]2CCCN2C(=O)[C@H]2CCCN2C(=O)[C@H](CO)NC(=O)[C@H](C)NC(=O)[C@H](C(C)(C)C)NC(=O)[C@H](CCN)NC(=O)[C@H](Cc2c[nH]c3ccccc23)NC(=O)[C@@H](NC(C)=O)CCNC(=O)CC[C@@H](C(=O)N[C@H](CCN)C(=O)N[C@H]2CCNC(=O)[C@H]([C@@H](C)O)NC(=O)[C@H](CCN)NC(=O)[C@H](CCN)NC(=O)[C@H](CC(C)C)NC(=O)[C@@H](Cc3ccccc3)NC(=O)[C@H](CCN)NC2=O)NC(=O)[C@H](CCCN)NC(=O)[C@H](CCN)NC(=O)[C@H](Cc2ccc(O)cc2)NC(=O)[C@H](CO)NC1=O [Ex. 197] (Ac-[Dab]W[Dab][Tle]AS[dP]P[Nle]SY[Dab][Orn]E[dDab][Dab][Dab][dF]L[Dab][Dab]T; lactam 1-14, 16-C)	–	0.0625	0.25	0.5	2	4	2	0.25	2

Reference: US10829520B2, “Beta-hairpin peptidomimetics” (POLYPHOR AG, priority 2015, dated 2020)
